This is an account of results in patent EP4722219A1 (Gan & Lee Pharmaceuticals Co., Ltd., priority 2023, dated 2024).

Assay type in all cases: cell-based
Assay [1] addresses T1, AR protein (Homo sapiens, UniProt P10275, T878A).
T1 construct: host or cells: LNCaP FGC
T1 sequence (P10275 1-920 T878A): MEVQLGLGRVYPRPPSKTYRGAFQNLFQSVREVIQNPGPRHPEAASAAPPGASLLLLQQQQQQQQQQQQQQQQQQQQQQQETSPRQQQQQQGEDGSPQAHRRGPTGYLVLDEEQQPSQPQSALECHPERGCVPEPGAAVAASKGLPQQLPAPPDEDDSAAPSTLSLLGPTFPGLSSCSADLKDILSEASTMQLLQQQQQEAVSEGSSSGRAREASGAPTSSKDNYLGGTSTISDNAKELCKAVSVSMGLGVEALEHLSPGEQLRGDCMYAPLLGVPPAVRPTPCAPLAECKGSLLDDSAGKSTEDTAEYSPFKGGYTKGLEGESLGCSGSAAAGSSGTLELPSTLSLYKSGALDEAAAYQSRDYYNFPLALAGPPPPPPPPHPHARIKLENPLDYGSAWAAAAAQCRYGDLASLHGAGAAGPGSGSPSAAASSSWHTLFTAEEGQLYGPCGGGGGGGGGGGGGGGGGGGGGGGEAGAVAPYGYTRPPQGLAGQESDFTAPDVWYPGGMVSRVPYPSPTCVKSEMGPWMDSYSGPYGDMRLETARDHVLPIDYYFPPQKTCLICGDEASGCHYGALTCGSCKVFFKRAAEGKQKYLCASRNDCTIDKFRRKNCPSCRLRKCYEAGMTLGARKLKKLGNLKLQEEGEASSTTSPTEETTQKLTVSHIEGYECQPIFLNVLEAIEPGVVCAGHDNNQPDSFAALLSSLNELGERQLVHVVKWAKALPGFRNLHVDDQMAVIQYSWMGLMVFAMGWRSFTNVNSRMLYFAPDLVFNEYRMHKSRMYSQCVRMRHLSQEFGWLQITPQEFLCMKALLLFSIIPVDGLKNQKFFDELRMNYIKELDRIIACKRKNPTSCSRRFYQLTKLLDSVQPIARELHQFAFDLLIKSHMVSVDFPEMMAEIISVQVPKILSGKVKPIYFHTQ
Briefly: AR protein degradation in LNCaP cells (Western blot). The settings on record: 8 hours; for Degradation of AR protein in LNCaP cells, 10 nM (%) / percent AR protein degradation at a fixed concentration at 0.01 µM: 10 nM; for Degradation of AR protein in LNCaP cells, 100 nM (%) / percent AR protein degradation at a fixed concentration at 0.1 µM: 100 nM. Here is the method: At the same time, the corresponding solvent control was set and cultured for 8 hours. After 8 hours of culture, the culture medium was removed, the cells were washed with PBS, and RIPA lysis buffer containing 1% Protease Inhibitor Cocktail was added. After lysis and centrifugation, the total protein extract was obtained, and the protein concentration in the extract was detected by BCA method. Protein electrophoresis was performed using SDS-PAGE, and then the protein was transferred to a PVDF (Millipore Sigma catalog number PSRP010R5) membrane at a constant voltage of 100V for 60 minutes. The PVDF membrane was placed in a 5% milk powder 1 ×TBST solution and blocked at room temperature for 1 hour. […] The primary antibody solution was discarded and the PVDF membrane was washed with 1×TBST for 5 minutes each time, for three times. […] The secondary antibody solution was discarded and the PVDF membrane was washed with 1 ×TBST for 5 minutes each time, for three times. A dual-color infrared laser imaging system (Licor catalog number Odyssey CLX) was used for Western membrane imaging. The Image Studio software was used to analyze the grayscale of the bands. GAPDH protein bands were also detected for each sample as the reference. The AR protein degradation rate of the compound and the positive control sample was calculated based on the grayscale of the protein bands.

In assay [2] the test system is VCaP cells. Briefly: Inhibition of VCaP cell proliferation (WST-8). The settings on record: Homo sapiens, 168 hours. The procedure: On the first day of the experiment, VCaP cells were seeded at a density of 15,000 cells/well in a 96-well plate using DMEM medium containing 10% fetal bovine serum, with 100µL of cell suspension per well, and cultured overnight in a cell incubator at 37°C and 5% CO2. On the second day, 100µL of the compound of the present invention and the positive control ARV-110 (source: Anaiji) prepared in culture medium at different concentrations were added to each well. The final concentration of the compound was 9 concentration points of 5-fold serial dilution starting from 10 µM. […] On the ninth day, the 96-well cell culture plate was removed and 1/10 volume of WST-8 (Beytime, C0040) reagent was added to each well. The absorbance at 450nm was measured using a microplate reader (TECAN, F50).

For assay [3], the system named is LNCaP cells. Briefly: Inhibition of LNCaP cell proliferation (WST-8). To be noted: Homo sapiens, LNCaP FGC cells, 96 hours. The procedure:
The inhibitory activity of compounds disclosed in the present invention on LNCaP cell proliferation
The cells were cultured overnight in a 37°C, 5% CO2 cell incubator. […] The final concentration of the compound was 9 concentration points of 5-fold serial dilution starting from 10 µM. […] The cells were cultured in a cell culture incubator at 37°C and 5% CO2 for 96 hours. On the sixth day, the 96-well cell culture plate was removed, and 1/10 volume of WST-8 (Beytime, C0040) reagent was added to each well. The absorbance at 450 nm was detected using a microplate reader (TECAN, F50).

As to `C[C@H]1CC2(CCN(c3ccc(N4CCC(CN5CC6(CCC7(CC6)COc6c7ccc7c6CN(C6CCC(=O)NC6=O)C7=O)C5)CC4)cc3)CC2)CN1c1ccc(C#N)c(Cl)c1` (stereo partly drawn) [A-P-6, 2-chloro-4-((3S)-8-(4-(4-((7'-(2,6-dioxopiperidin-3-yl)-6'-oxo-7',8'-dihydro-2'H,6'H-dipyrazole[azetidine-3,1'-cyclohexane-4',3'-furo[2,3-e]isoindol]-1-yl)methyl)piperidin-1-yl)phenyl)-3-methyl-2,8-diazaspiro[4.5]decan-2-yl)benzonitrile], in assay [1], the “Degradation of AR protein in LNCaP cells, 10 nM (%)” value (“Degradation … 10 nM (%)” below) amounted to 58% and the “Degradation of AR protein in LNCaP cells, 100 nM (%)” value (shortened to “Degradation … 100 nM (%)”) was 60%. This compound gave an IC50 in assay [2] of 0.00016 µM. Moreover, in assay [3], the IC50 was found to be 1.02 µM.
With `C[C@H]1CC2(CCN(c3ccc(N4CCC(CN5CCC6(CC5)CCC5(CC6)COc6c5ccc5c6CN(C6CCC(=O)NC6=O)C5=O)CC4)cc3)CC2)CN1c1ccc(C#N)c(Cl)c1` (stereo partly drawn) [A-P-8, (S)-1'-((1-(4-(6-chloro-7-cyanospiro-spiro[tryptophan-3,4'-piperidin]-1'-yl)benzoyl)piperidin-4-yl)methyl)-N-(2,6-dioxopiperidin-3-yl)-7-fluoro-spiro[tryptophan-2,4'-pyridyl]-6-carboxamide], in assay [1], the percent AR protein degradation at a fixed concentration at 0.01 µM was -4%. Moreover, the percent AR protein degradation at a fixed concentration at 0.1 µM in assay [1] was found to be 63%. Further, the IC50 in assay [2] amounted to 0.005 µM; in assay [3], 0.2 µM.
For `N#Cc1cc2c(cc1Cl)OCC1(CCN(C(=O)c3ccc(N4CCC(CN5CCC6(CCc7cc(C(=O)N[C@H]8CCC(=O)NC8=O)c(F)cc7O6)CC5)CC4)cc3)CC1)O2` [A-P-44, (S)-1'-((1-(4-(6-chloro-7-cyano-3H-spiro[benzo[b][1,4]dioxane-2,4'-piperidin]-1'-carbonyl)phenyl)piperidin-4-yl)methyl)-N-(2,6-dioxopiperidin-3-yl)-7-fluorospiro[chroman-2,4'-piperidin]-6-carboxamide] the same measures were 20%, 9%, 2.89 µM and 0.24 µM.
For `N#Cc1cc2c(cc1Cl)OC1(CCN(c3ccc(C(=O)N4CCC(CN5CCC6(CCc7cc(C(=O)N[C@H]8CCC(=O)NC8=O)c(F)cc7O6)CC5)CC4)cc3)CC1)CO2` [A-P-46, (S)-1'-((1-(4-(7-chloro-6-cyano-3H-spiro[benzo[b][1,4]dioxo-2,4'-piperidin]-1'-yl)benzoyl)piperidin-4-yl)methyl)-N-(2,6-dioxopiperidin-3-yl)-7-fluorospiro[chroman-2,4'-piperidin]-6-carboxamide] the same measures were 4%, 15%, 3.75 µM and 0.89 µM.
In the case of `N#Cc1cc2c(cc1Cl)CC1(CCN(c3ccc(C(=O)N4CCC(CN5CCC6(CCc7cc(C(=O)N[C@H]8CCC(=O)NC8=O)c(F)cc7O6)CC5)CC4)cc3)CC1)CO2` [A-P-51], in assay [1], the percent AR protein degradation at a fixed concentration at 0.01 µM is -23% and the percent AR protein degradation at a fixed concentration at 0.1 µM stood at 12%. The compound also had an IC50 in assay [2] of 8.44 µM. Further, half-maximal inhibition in assay [3] (IC50) required 3.36 µM.
For `N#Cc1cc2c(cc1Cl)OC1(CCN(C(=O)c3ccc(N4CCC(CN5CCC6(CCc7cc(C(=O)N[C@H]8CCC(=O)NC8=O)c(F)cc7O6)CC5)CC4)cc3)CC1)CO2` [A-P-53, (S)-1'-((1-(4-(7-chloro-6-cyano-3H-spiro[benzo[b][1,4]dioxane-2,4'-piperidin]-1'-carbonyl)phenyl)piperidin-4-yl)methyl)-N-(2,6-dioxopiperidin-3-yl)-7-fluorospiro[chroman-2,4'-piperidin]-6-carboxamide] the same measures were -11%, -3%, 1.32 µM and 0.14 µM.
For the compound `COc1cc2c(cc1C(=O)N[C@H]1CCC(=O)NC1=O)CCC1(CCN(CC3CCN(c4ccc(N5CCC6(CC5)C[C@H](C)N(c5ccc(C#N)c(Cl)c5)C6)cc4)CC3)CC1)O2` [A-P-54], in assay [1], the “Degradation … 10 nM (%)” value came out at 40%. Besides, the “Degradation … 100 nM (%)” value in assay [1] is recorded as 74%. Also, the IC50 in assay [2] was 0.007 µM; in assay [3] it was 0.91 µM.
For `CC1(CN2CCC3(CCc4cc(C(=O)N[C@H]5CCC(=O)NC5=O)c(F)cc4O3)CC2)CCN(c2ccc(C(=O)N[C@H]3C(C)(C)[C@H](Oc4ccc(C#N)c(Cl)c4)C3(C)C)cc2)CC1` [A-P-55] the same measures were -15%, 15%, 1.05 µM and 0.95 µM.
For the compound `C[C@H]1CC2(CCN(c3ccc(N4CCC(CN5CCN6c7ccc(C(=O)N[C@H]8CCC(=O)NC8=O)c(F)c7OC[C@H]6C5)CC4)cc3)CC2)CN1c1ccc(C#N)c(Cl)c1` [A-P-61, (R)-3-((1-(4-((S)-2-(3-chloro-4-cyanophenyl)-3-methyl-2,8-diazaspiro[4.5]decan-8-yl)phenyl)piperidin-4-yl)methyl)-N-((S)-2,6-dioxopiperidin-3-yl)-7-fluoro-1,2,3,4,4a,5-hexahydrobenzo[b]pyrazi no[1,2-d][1,4]oxazine-8-carboxamide], in assay [1], the percent AR protein degradation at a fixed concentration at 0.01 µM turned out to be 24% and the percent AR protein degradation at a fixed concentration at 0.1 µM turned out to be 79%. The compound also came in with an IC50 in assay [2] of 0.19 µM. The compound also displayed an IC50 in assay [3] of 0.21 µM.
As for `C[C@H]1CC2(CCN(c3ccc(C(=O)N4CCC(CN5CCN6c7ccc(C(=O)N[C@H]8CCC(=O)NC8=O)c(F)c7OC[C@H]6C5)CC4)cc3)CC2)CN1c1ccc(C#N)c(Cl)c1` [A-P-62, (R)-3-((1-(4-((S)-2-(3-chloro-4-cyanophenyl)-3-methyl-2,8-diazaspiro[4.5]decan-8-yl)benzoyl)piperidin-4-yl)methyl)-N-((S)-2,6-dioxopiperidin-3-yl)-7-fluoro-1,2,3,4,4a,5-hexahydrobenzo[b]pyrazi no[1,2-d][1,4]oxazine-8-carboxamide], in assay [1], the percent AR protein degradation at a fixed concentration at 0.01 µM was determined as 47% and the percent AR protein degradation at a fixed concentration at 0.1 µM worked out at 72%. The IC50 in assay [2] turned out to be 0.45 µM. In assay [3], this compound showed a concentration for half-maximal inhibition (IC50) of 9.54 µM.
As to `COc1cc(O[C@H]2C(C)(C)[C@H](NC(=O)c3ccc(N4CCC(CN5CCN6c7cc(F)c(C(=O)N[C@H]8CCC(=O)NC8=O)cc7OC[C@H]6C5)CC4)cc3)C2(C)C)ccc1C#N` [A-P-63], in assay [1], the “Degradation … 10 nM (%)” value is listed as 27% and the “Degradation … 100 nM (%)” value is 68%. The same compound showed an IC50 in assay [2] of 0.39 µM. Besides, inhibition in assay [3] was half-maximal at 0.24 µM (IC50).
For `CC1(C)[C@H](NC(=O)c2ccc(N3CCC(CN4CCN5c6ccc(C(=O)N[C@H]7CCC(=O)NC7=O)cc6OC[C@H]5C4)CC3)cc2)C(C)(C)[C@H]1Oc1ccc(C#N)c(Cl)c1` [A-P-77], in that order: 20%, 62%, 0.0055 µM and 0.44 µM.
